This note sets out measurements from US20030125572A1, “Diester compounds of maleic acid (or fumaric acid)” (SENJU PHARMACEUTICAL CO., LTD., priority 1999, published 2003).

The nature of assay [1]: DPPH radical scavenging capacity. The note with it: for Radical scavenging capacity: DPPH, 20 min, absorbance at 517 nm. As for the experimental part: The Compound is tested for the radical scavenging capacity against the stabilized radical of 1,1-diphenyl-2-picrylhydro radicals (DPPH).
The compound of Example 1 is dissolved in ethanol to the concentrations ranging from 10^−2 to 10^−5 M.
The test is carried out in accordance with the procedure of Blois, M. S., Nature: 181, 1199 […].
Added to 300 μl of a sample solution is 2.7 ml of a 0.011 mM ethanol solution of DPPH or a stabilized radical, and the solution is stirred and left on standing for 20 min., followed by measurement of absorbance at a wavelength of 517 nm. The radical scavenging rate of the sample solution is determined by the following equation:
Radical scavenging rate (%)=(absorbance of control−absorbance of the sample solution[…])×100
A general note: The DPPH test is a chemical assay of radical scavenging.

Assay [2] concerns mouse auricule inflammation. Put plainly: Inflammation model of mouse auricule (PMA-induced edema). It is filed as in vivo. The note with it: for Inhibition rate (%): auricule edematization, against control (methanol), 0.5% solution topically, 24 hours. As for the experimental part: The compound of Example 1 is dissolved in ethanol to the concentration of 0.5%.
6-Weeks aged male mice of ddy strain as procured from SLC CO. are subjected to the test.
In order to cause inflammation, a solution (100 μg/mL) of phorbol 12-myristate 13-acetate (PMA) in acetone is applied in 10-μl portions (20 μl in total per mouse) onto the inside and outside of right-hand auricule of each mouse in such a manner that the solution may extend over the whole auricule. 24 Hours after causing inflammation, the thickness of right-hand auricule of each mouse is measured with use of a dial thickness gauge, and the edematization rate is calculated based on the thickness before causing inflammation.
The test substance is applied in 10-μl portions (20 μl in total per mouse) onto the inside and outside of right-hand auricule of each mouse.

Counter-ions that a name gives are not always drawn.

Usually IC50 stands for the concentration needed to halve the response being measured. Low values mean inhibition by little substance, high ones a need for much substance. In the case of `Cc1c(C)c2c(c(C)c1OC(=O)/C=C\C(=O)OC1=C(O)[C@@H]([C@@H](O)CO)OC1=O)CCC(C)(CCCC(C)CCCC(C)CCCC(C)C)O2` (stereo partly drawn) [Example 1, α-Tocopheryl L-Ascorbic Acid-2-O-Maleate (or Fumarate)], the IC50 in assay [1] (DPPH radical) is about 560 µM. The Radical scavenging capacity was 5.2% in assay [1] (final concn. 10 μM), 10.8% in assay [1] (final concn. 100 μM), 29.5% in assay [1] (final concn. 300 μM) and 61.4% in assay [1] (final concn. 1000 μM). Further, the “Inhibition rate (%)” value in assay [2] (listed as Compound of Example 1) was 83.8%; in assay [2] (listed as the Compound), 83.3%. The “Edematization rate (%)” value in assay [2] (male ddy mice, PMA on right auricule, 24 hours after causing inflammation, 0.5% solution applied topically, 20 μl per mouse, mean ± S.E. (n = 8)) was 26.9 ± 6.2 %.
